System: T1, EstD04
T1 construct: C-terminal His6 tag (kept), pET-21a, E. coli BL21(DE3); catalytic triad Ser160/Glu253/His283; gene PCR-amplified with primers from P. nitroreducens homologue CEG18-11055 (homologue, not this protein)
Assay: p-nitrophenol release at […] nm, Lineweaver-Burk
Format: biochemical, Pseudomonas sp. D01
Settings: pH 8.0, 40 °C, 50 mM potassium phosphate; 0.25-2 mM substrate

Compound: CCCC(=O)Oc1ccc([N+](=O)[O-])cc1 [p-NPC4, p-nitrophenyl butyrate]
- Km: 488 ± 1 µM
